Experiment: solubility in water (analytical studies)
Assay type: physicochemical
Settings: compared with the new polymorphic hydrochloride salts

In the case of `Cc1cc2c(s1)Nc1ccccc1N=C2N1CCN(C)CC1` [olanzapine base, 2-methyl-4-(4-methylpiperazin-1-yl)-10H-thieno-[2,3-b][1,5]-benzodiazepine], the solubility in water is reported as “significantly lower”.

From patent US7951798B2, “Polymorphs of olanzapine hydrochloride” (Egis Hyogyszergyar Nyrt., priority 2003, dated 2011)
